Assay results: patent US20090054412A1, “Treatment of Sleep Disorders” (priority 2007, published 2009)

Legend:
[1] = biological target: T1, rat GABAA receptors α3β2γ2 (Rattus norvegicus, UniProt P18508+P20236); experiment: Stimulation of GABA (EC3-5)-elicited currents in Xenopus oocytes, two-electrode voltage clamp, α3β2γ2; assay type: cell-based
T1 construct: expressed in transfected cells; host or cells: Xenopus laevis oocytes, cRNA microinjected
Description: 7-Chloro-3-(5-dimethylaminomethyl-[1,2,4]oxadiazol-3-yl)-5methyl-4,5-dihydro-imidazol[1,5,-a][1,4]benzodiazepine-6-one was used to test the effects of the compound of formula (II): […]
Similar procedures were chosen as for the investigation of other GABAA receptor subunit specific substances (e.g., Baur et al., 2005; Mol. Pharmacol. 68, 787-792).
Lobes of the ovary containing the follicles were obtained by surgical procedures from female Xenopus laevis. Follicles were singled out using a platinum loop. Fifty nL of cRNA solution at a ratio of αx:β2:γ2 of 1:1:5 (3.3-10 nM αx (x=1,2,3,5); 3.3-10 nM β2; 16.7-50 nM γ2) (Boileau et al., 2002; Neuropharmacology 43, 695-700) were microinjected into Xenopus follicles. Several hours after microinjection the follicles were freed of follicular layers and adhering connective tissue by a collagenase/hypertonic shock procedure (Sigel, 1987; J. Physiol.(Land) 386, 73-90). Oocytes were kept at constant 18° C. until measurement (1-4 days) in a modified Barth solution (88 mM NaCl, 1 mM KCl, 2.4 mM NaHCO3, 10 mM Hepes-NaOH (pH 7.5), 0.82 mM MgSO4×7H2O, 0.34 mM Ca(NO3)2×4H2O, 0.41 mM CaCl2×2H2O, 100 U Penicillin/mL, 100 μg Streptomycin/mL, sterile filtered).
Currents were measured using a home-built amplifier in combination with a xy-recorder or were digitized using a MacLab/200 (AD Instruments) and stored on a computer. Xenopus oocytes were voltage clamped using the two-electrode voltage clamp technique (electrode resistance about 0.8 MΩ) at −80 mV. The medium contained 90 mM NaCl, 1 mM KCl, 1 mM MgCl2, 1 mM CaCl2, 10 mM Na-Hepes (pH 7.4) and 0.5% DMSO.
GABA was applied for 20-50 seconds without or in combination with other drugs and a washout period of 4 minutes was allowed to ensure full recovery from desensitization, which was experimentally determined. The perfusion solution (6 mL/min) was applied through a glass capillary with an inner diameter of 1.35 mm, the mouth of which was placed about 0.4 mm from the surface of the oocyte. The rate of solution change under our conditions has been estimated 70% within less than 0.5 s (Sigel et al., 1990; Neuron 5, 703-711). The entire perfusion system and the assay chamber were cleaned between drug applications by washing with DMSO.
Data is given as mean±SD, except in the figures where data is shown for clarity as mean±SEM. Current stimulation was calculated as follows: stimulation (%)=((I(GABA+modulator)−I(GABA))/I(GABA))×100%, where I is the current amplitude. Where indicated, the stimulation was standardized to the stimulation by 1 μM diazepam (100%). To obtain FIGS. 1-4, values for current stimulation obtained at a given concentration of modulator at a given subunit combination were averaged. The data points were fitted with the equation stimulation=efficacy/(1+(potency/concentration of modulator)). The values given in the Tables (Summary) are obtained by fitting individual curves and subsequently averaging efficacy and potency.
Concentration response curves were also performed with oocytes expressing α2β2γ2, α3β2γ2, or α5β2γ2, after establishing the optimal concentration range as indicated above. […] Averaged data of the individual curves summarizing the effects of the compound of formula (II) are shown below for unstandardized and standardized stimulation.
Concentration response curves were also performed with oocytes expressing α2β2γ2, α3β2γ2, or α5β2γ2.
Current stimulation by diazepam was determined in each batch of oocytes as follows. GABA (EC3-5) was applied until a stable response was obtained. Subsequently, GABA was applied in combination with 1 μM diazepam.

[2] = Example 3: randomized double-blind placebo-controlled crossover study in primary insomnia (PSG, patient reports, DSST, safety); assay type: in vivo, human
Description: A randomized, multicenter, double-blind, placebo-controlled crossover study was conducted to assess the efficacy of the 1.5 mg and 2.5 mg doses of the compound of formula (II) in the treatment of primary insomnia in adult patients. Specifically, one of the objectives of the study was to assess the efficacy of 1.5 mg and 2.5 mg doses on polysomnogram (PSG) and patient-reported measures of sleep. Also, the study was aimed at assessing the safety of 1.5 mg and 2.5 mg doses.
The study in this Example was performed for two consecutive nights with a 5-12 day washout between each period. The dosing was conducted 30 minutes before lights were turned out for the night via oral administration of a hard gelatine capsule containing the compound of formula (II) in powder form. PSG was taken for 8 hours from “lights out” on nights 1 and 2 of each treatment period. Centralized scoring of PSG was used. Testing for residual effects using the Digit Symbol Substitution Test (DSST) was performed at least 30 minutes after wake time (9 hours post dose).
[…] These subjects' typical bed time was between 9 pm and 1 am with at least 7 hours in bed. These subjects reported sleep latency of at least 45 minutes and total sleep time (TST) of not more than 6.5 hours in a sleep diary for at least 3 of 7 nights.
Mean wake time after sleep onset (WASO) of the patients was at least 40 minutes and mean TST was 240-420 minutes.

T1 sequence (P20236 29-493): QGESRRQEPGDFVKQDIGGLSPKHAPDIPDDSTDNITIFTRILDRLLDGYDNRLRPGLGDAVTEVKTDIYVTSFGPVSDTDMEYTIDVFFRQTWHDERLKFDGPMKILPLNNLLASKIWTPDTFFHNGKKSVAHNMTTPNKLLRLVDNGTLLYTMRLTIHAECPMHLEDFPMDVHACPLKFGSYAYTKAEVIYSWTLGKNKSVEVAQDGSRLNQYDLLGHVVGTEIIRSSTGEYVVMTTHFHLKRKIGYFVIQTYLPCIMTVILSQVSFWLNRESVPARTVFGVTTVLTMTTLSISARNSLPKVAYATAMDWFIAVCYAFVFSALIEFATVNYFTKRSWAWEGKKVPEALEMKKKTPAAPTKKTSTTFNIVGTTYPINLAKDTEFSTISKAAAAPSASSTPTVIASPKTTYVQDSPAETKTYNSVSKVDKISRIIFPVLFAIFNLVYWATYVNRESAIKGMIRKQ
T1 sequence (P63138 25-474 partner limits assumed): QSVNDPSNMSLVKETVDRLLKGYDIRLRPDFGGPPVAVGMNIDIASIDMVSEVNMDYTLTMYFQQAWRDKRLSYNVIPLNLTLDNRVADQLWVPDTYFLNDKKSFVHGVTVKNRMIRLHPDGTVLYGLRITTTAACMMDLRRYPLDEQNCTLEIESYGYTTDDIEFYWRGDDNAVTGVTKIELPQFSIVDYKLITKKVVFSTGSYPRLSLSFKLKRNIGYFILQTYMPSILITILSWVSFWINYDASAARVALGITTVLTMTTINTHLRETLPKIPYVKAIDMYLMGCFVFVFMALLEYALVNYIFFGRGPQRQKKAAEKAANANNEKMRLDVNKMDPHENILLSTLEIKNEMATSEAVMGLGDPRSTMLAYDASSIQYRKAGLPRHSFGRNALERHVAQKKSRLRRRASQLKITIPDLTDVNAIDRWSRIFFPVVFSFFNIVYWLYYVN
T1 sequence (P18508 39-466): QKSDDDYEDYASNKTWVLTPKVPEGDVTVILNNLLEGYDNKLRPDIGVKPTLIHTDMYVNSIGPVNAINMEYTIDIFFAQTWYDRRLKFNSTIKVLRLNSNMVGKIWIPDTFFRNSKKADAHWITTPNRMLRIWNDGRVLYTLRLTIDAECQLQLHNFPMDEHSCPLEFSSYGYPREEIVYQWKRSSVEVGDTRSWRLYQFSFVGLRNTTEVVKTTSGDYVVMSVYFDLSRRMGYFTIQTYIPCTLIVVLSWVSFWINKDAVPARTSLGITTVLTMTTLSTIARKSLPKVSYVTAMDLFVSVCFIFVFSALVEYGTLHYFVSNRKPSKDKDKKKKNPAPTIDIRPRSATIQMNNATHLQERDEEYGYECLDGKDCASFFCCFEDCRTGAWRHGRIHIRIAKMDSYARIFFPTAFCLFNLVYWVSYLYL

In the case of `CN(C)Cc1nc(-c2ncn3c2CN(C)C(=O)c2c(Cl)cccc2-3)no1` [compound of formula (II), 7-chloro-3-(5-dimethylaminomethyl-[1,2,4]oxadiazol-3-yl)-5-methyl-4,5-dihydro-imidazo[1,5-a][1,4]benzodiazepine-6-one], the EC50 ([1]; GABA EC3-5, mean±SD of individually fitted curves, read-out: Potency) is reported as 84 ± 15 nM, the “Standardized Efficacy” value ([1]; standardized to stimulation by 1 μM diazepam (100%)) is reported as 41 ± 8% (n = 5) and the Efficacy ([1]; unstandardized current stimulation) is reported as 171 ± 33% (n = 5). The “increase of TST compared to placebo” value ([2]; 1.5 mg) was 33.1 min, the “reduction of LPS compared to placebo” value ([2]; 1.5 mg) was 17.0 min and the “reduction of WASO compared to placebo” value ([2]; 1.5 mg) was 16.7 min. For the same molecule, the “reduction of total wake time in hours 5-8” value ([2]; 1.5 mg) was 10.8 min, the “Number of Patients with Any Event” value ([2]; 1.5 mg (n = 71)) was 13 and the “Number of Patients with Headache” value ([2]; 1.5 mg (n = 71)) was 3. The “Number of Patients with Somnolence” value ([2]; 1.5 mg (n = 71)) was 2, the “Patients with Any Event, percent” value ([2]; 1.5 mg (n = 71)) was 18.3% and the “Patients with Headache, percent” value ([2]; 1.5 mg (n = 71)) was 4.2%. The “Patients with Somnolence, percent” value ([2]; 1.5 mg (n = 71)) was 2.8%, the safety and tolerability ([2]; 1.5 mg and 2.5 mg) was “safe and well-tolerated” and the “WASO in the second half of the night (5-8 hours after lights out)” value ([2]; 1.5 mg and 2.5 mg, compared to placebo, p<0.0001) was “reduced WASO”. For the same molecule, the “patient-reported residual sedation effects” value ([2]; 1.5 mg or 2.5 mg compared with placebo) was “no patient-reported residual sedation effects”, the “Adjusted mean LPS (min), p value” ([2]; 1.5 mg vs. placebo) was “p < 0.0001” and the “Adjusted mean TST (min), p value” ([2]; 1.5 mg vs. placebo) was “p < 0.0001”. The “Adjusted mean WASO (min), p value” ([2]; 1.5 mg vs. placebo) was “p < 0.0001”, the “Adjusted mean total wake time, 2nd half (min), p value” ([2]; 1.5 mg vs. placebo) was “p = 0.0008” and the “increase of TST compared to placebo” value ([2]; 2.5 mg) was 45.0 min. The “reduction of LPS compared to placebo” value ([2]; 2.5 mg) was 20.7 min, the “reduction of WASO compared to placebo” value ([2]; 2.5 mg) was 25.7 min and the “reduction of total wake time in hours 5-8” value ([2]; 2.5 mg) was 16.2 min. For the same molecule, the “Number of Patients with Any Event” value ([2]; 2.5 mg (n = 71)) was 18, the “Number of Patients with Headache” value ([2]; 2.5 mg (n = 71)) was 6 and the “Number of Patients with Somnolence” value ([2]; 2.5 mg (n = 71)) was 4. The “Patients with Any Event, percent” value ([2]; 2.5 mg (n = 71)) was 25.4%, the “Patients with Headache, percent” value ([2]; 2.5 mg (n = 71)) was 8.5% and the “Patients with Somnolence, percent” value ([2]; 2.5 mg (n = 71)) was 5.6%. The “Adjusted mean LPS (min), p value” ([2]; 2.5 mg vs. placebo) was “p < 0.0001”, the “Adjusted mean TST (min), p value” ([2]; 2.5 mg vs. placebo) was “p < 0.0001” and the “Adjusted mean WASO (min), p value” ([2]; 2.5 mg vs. placebo) was “p < 0.0001”. The “Adjusted mean total wake time, 2nd half (min), p value” ([2]; 2.5 mg vs. placebo) was “p < 0.0001”, the “total time awake during each hour after dosing” value ([2]; 2.5 mg, hour 7 p 0.0577) was “statistically significant reduction each hour, except hour 7” and the REM sleep ([2]; 1.5 and 2.5 mg) was “only a small effect on REM sleep”. For the same molecule, the patient-reported sleep quality ([2]; 1.5 and 2.5 mg) was “marked improvement in sleep quality”, the sleep architecture ([2]; 1.5 and 2.5 mg) was “equivalent to the natural sleep architecture” and the slow wave sleep ([2]; 1.5 and 2.5 mg) was “no impairment of slow wave sleep”. The “Digit Symbol Substitution Test (DSST) scores” value ([2]; 9 hours after dose, compared with placebo) was “only slightly lower”.
